Data: ChEMBL document CHEMBL5584309, “Discovery of Novel Mcl-1 Inhibitors with a 3-Substituted-1H-indole-1-yl Moiety Binding to the P1-P3 Pockets to Induce Apoptosis in Acute Myeloid Leukemia Cells” (J Med Chem, 2024)
Calls of active or inactive are those of the source. No cut-off for these calls is given here.

Tests used:
[1] = Toxicity in NOD SCID mouse xenografted with human THP-1 cells assessed as change in lung tissue at 40 to 80 mg/kg, ip once daily after 10 days of tumor inoculation treated for 14 days relative to control; assay type: organism-based; conditions: in vivo, 336 h, dose 40-80 mg/kg, time 14 day
[2] = Toxicity in NOD SCID mouse xenografted with human HL-60 cells assessed as change in kidney tissue at 80 mg/kg, ip once daily after 15 days of tumor inoculation treated for 12 days; assay type: organism-based; conditions: in vivo
[3] = AUC (0 to t) in Sprague-Dawley rat at 20 mg/kg, ip measured upto 24 hrs by LC-MS/MS analysis; assay type: ADME, organism-based; conditions: in vivo
[4] = Toxicity in NOD SCID mouse xenografted with human THP-1 cells assessed as change in liver tissue at 40 to 80 mg/kg, ip once daily after 10 days of tumor inoculation treated for 14 days relative to control; assay type: organism-based; conditions: in vivo, 336 h, dose 40-80 mg/kg, time 14 day
[5] = Toxicity in NOD SCID mouse assessed as change in lung tissue at 25 mg/kg, ip administered for 7 consecutive days by Hematoxylin-eosin (HE) staining based assay; assay type: organism-based; conditions: in vivo, 168 h, time 7 day
[6] = Toxicity in NOD SCID mouse xenografted with human THP-1 cells assessed as change in heart tissue at 40 to 80 mg/kg, ip once daily after 10 days of tumor inoculation treated for 14 days relative to control; assay type: organism-based; conditions: in vivo, 336 h, dose 40-80 mg/kg, time 14 day
[7] = Cytotoxicity against human AC16 cells assessed as change in intracellular calcium level at 20 uM measured after 24 hrs by Fluo-4 AM based flow cytometry; assay type: toxicity, cell-based; conditions: ac16 [human hybrid]
[8] = Bioavailability in Sprague-Dawley rat at 20 mg/kg, ip measured upto 24 hrs by LC-MS/MS analysis; assay type: ADME, organism-based; conditions: in vivo
[9] = Toxicity in NOD SCID mouse xenografted with human HL-60 cells assessed as change in liver tissue at 80 mg/kg, ip once daily after 15 days of tumor inoculation treated for 12 days; assay type: organism-based; conditions: in vivo, 288 h, time 12 day
[10] = Toxicity in NOD SCID mouse xenografted with human HL-60 cells assessed as change in spleen tissue at 80 mg/kg, ip once daily after 15 days of tumor inoculation treated for 12 days; assay type: organism-based; conditions: in vivo, 288 h, time 12 day
[11] = system: HL-60; assay: In vivo antitumor activity against human HL-60 cells xenografted in female NOD SCID mouse assessed as tumor growth inhibition at 40 mg/kg, ip once daily after 15 days of tumor inoculation treated for 12 days relative to control; assay type: functional; conditions: read-out: TGI
[12] = system: THP-1; assay: In vivo antitumor activity against human THP-1 cells xenografted in female NOD SCID mouse assessed as tumor growth inhibition at 40 mg/kg, ip once daily after 10 days of tumor inoculation treated for 14 days relative to control; assay type: functional; conditions: THP-1, 336 h, time 14 day, read-out: TGI
[13] = system: HL-60; assay: In vivo antitumor activity against human HL-60 cells xenografted in female NOD SCID mouse assessed as tumor growth inhibition at 80 mg/kg, ip once daily after 15 days of tumor inoculation treated for 12 days relative to control; assay type: functional; conditions: HL-60, 288 h, time 12 day, read-out: TGI
[14] = Tmax in Sprague-Dawley rat at 5 mg/kg, iv measured upto 24 hrs by LC-MS/MS analysis; assay type: ADME, organism-based; conditions: in vivo
[15] = MRT (0 to t) in Sprague-Dawley rat at 20 mg/kg, ip measured upto 24 hrs by LC-MS/MS analysis; assay type: ADME, organism-based; conditions: in vivo
[16] = system: HL-60; assay: In vivo antitumor activity against human HL-60 cells xenografted in female NOD SCID mouse assessed as reduction in tumor weight at 80 mg/kg, ip once daily after 15 days of tumor inoculation treated for 12 days; assay type: functional, organism-based; conditions: time 12.0 day
[17] = AUC (0 to infinity) in Sprague-Dawley rat at 5 mg/kg, iv measured upto 24 hrs by LC-MS/MS analysis; assay type: ADME, organism-based; conditions: in vivo
[18] = system: THP-1; assay: Induction of apoptosis in human THP-1 cells assessed as increase in Noxa measured after 24 hrs by Western blot analysis; assay type: functional, cell-based; conditions: dose 10-20 µM
[19] = AUC (0 to infinity) in Sprague-Dawley rat at 20 mg/kg, ip measured upto 24 hrs by LC-MS/MS analysis; assay type: ADME, organism-based; conditions: in vivo
[20] = Toxicity in NOD SCID mouse xenografted with human HL-60 cells assessed as change in body weight at 80 mg/kg, ip once daily after 15 days of tumor inoculation treated for 12 days; assay type: organism-based; conditions: in vivo, 288 h, time 12 day
[21] = Toxicity in NOD SCID mouse assessed as change in liver tissue at 25 mg/kg, ip administered for 7 consecutive days by Hematoxylin-eosin (HE) staining based assay; assay type: organism-based; conditions: in vivo, 168 h, time 7 day

Cc1cc(OCCCc2c(C(=O)O)n(CCN3CCOCC3)c3c(-c4ccccc4Cn4cc(CCN(CCN5CCOCC5)S(=O)(=O)c5ccc(F)cc5)c5ccccc54)cccc23)cc(C)c1Cl
Activity [1]: Non-Toxic
Activity [2]: Non-Toxic
AUC(0-t) at 24 h [3]: 54600 ng·h/mL
Activity [4]: Non-Toxic
Activity [5]: Non-Toxic
Activity [6]: Non-Toxic
Activity [7]: Non-Toxic
bioavailability [8]: 74%
Activity [9]: Non-Toxic
Activity [10]: Non-Toxic
inhibition in vivo at 40 mg/kg [11]: 46.1%
inhibition in vivo at 40 mg/kg [12]: 40.2%
inhibition in vivo at 80 mg/kg [13]: 63.7%
Tmax [14]: 4.98 min
MRT last at 24 h [15]: 6.51 h
Activity [16]: Active
AUC(0-inf) [17]: 18800 ng·h/mL
Activity [18]: Dose-Dependent Effect
AUC(0-inf) [19]: 55800 ng·h/mL
Activity [20]: Non-Toxic
Activity [21]: Non-Toxic
